The text below walks through data of patent US9539272B2, “HDAC 6 inhibitor-based methods for treating cancer” (SLOAN-KETTERING INSTITUTE FOR CANCER RESEARCH, priority 2009, dated 2017).

Structures are written as SMILES. Values joined by “and” are separate entries in the source; they are usually repeats but may differ in a detail not shown here. Identical values can stand only once. “Also recorded” adds a separate entry of the source.

As usually defined, the IC50 is the midpoint of a concentration-inhibition curve.

For assay [1], the system named is LNCaP cells. The experiment in a line: Cell growth and viability by trypan blue exclusion, LNCaP.
Procedure: (§1) 5×10^4 cells were seeded per well in a 24-well plate and cultured overnight prior to treating with the compound and/or other agents as indicated for each study. Cells were harvested at 24, 48 and 72 hrs after treatment by trypsin digestion. […] At least three independent analyses were performed for each time point.
(§2) To monitor cell growth and viability, cells were seeded in triplicate at 5×10^4 cells in 1 ml of medium in 24-well plates. The drugs were added at the indicated concentrations 24 h after seeding. Cells were harvested by trypsin digestion at 24 h, 48 h and 72 h following drug additions. Cell number and viability were determined by trypan blue exclusion.
Assay [2] relates to acetylated α-tubulin and acetylated histone H3 in LNCaP cells. As to the kind of experiment: Accumulation of acetylated α-tubulin and acetylated histone H3 in LNCaP cells (Western blot). The conditions noted are these: BAHA 1.0 or 1.5 μM, SAHA 1.5 and 2.0 μM. The class given is cell-based, human. The protocol:
2×10^6 transformed cells were cultured for 24 hrs in a 10 cm tissue culture dish with 10 ml RPMI 1640 medium. HDAC inhibitors and/or other agents were added in concentrations as indicated for each study to the cultures and cell cultured for times indicated. Cells were harvested by scrapping, washed once with PBS, lyzed with histone extraction buffer (1 ml/10^7 cells), which contains 10 mM MgCl2, 10 mM Tris, 25 mM KCl, 1% Triton X-100, 8.6% sucrose and protease inhibitor cocktail (Roche Diagnostics Gmbh, Indianapolis, Ind.), pH 6.5. Cells were centrifuged at 600 g at 4° C. for 5 mins. The supernatants were saved as cell lyates. The pellets (nuclei) were washed once with TE buffer, suspended in 0.4 NH2SO4 (100 μl/10^7 cells), incubated for 1 hr on ice, and centrifuged at 10,000 g for 10 mins at 4° C. The supernatant was collected, mixed with 1 ml acetone, incubated at −20° C. for more than 1 hr, and centrifuged at 10,000 g for 10 mins at 4° C. The pellets were suspended in water (100 μl/10^7 cells). The protein concentrations were measured with Braford reagent (Bio-Rad, Hercules, Calif.).
1×10^6 cells in a 10 cm diameter cell culture dish were washed with PBS, harvested by trypsinization in 0.05% trypsin for LNCaP and 0.25% trypsin for MCF7, A549, HFS and WI38 resuspended in RIPA at 50 μl for every 1×10^6 cells. Antibodies used were: anti-acetylated tubulin (Sigma), anti-HDAC 6 (Santa Cruz Biotechnology), and anti-tubulin (Calbiochem), (Xu et al. Cancer Research, 65:7832-7839, 2005).
In general terms: A western blot detects proteins with antibodies after separation by electrophoresis.

Another assay concerns the target recombinant human HDAC1 (Homo sapiens, UniProt Q13547). The experiment in a line: In vitro HDAC assay with fluorogenic substrate, HDAC 1.
The subject of assay [3] is acetylated tubulin and acetylated histone H3 in A549 cells. The following applies: 24 hrs, tubacin 0.2, 2 or 20 μM; cited from earlier work.
A further assay deals with MCF-7 cells. As to the kind of experiment: Cell growth and viability by trypan blue exclusion, MCF-7. The class given is cell-based, human. The following applies: MCF-7, 72 hrs; 8 μM tubacin, 5 μM SAHA, […] doxorubicin, 100 μM etoposide, alone or plus 8 μM tubacin.
Assay [4] has as its system LNCaP HDAC 6 knockdown cells. The experiment in a line: Cell viability, LNCaP HDAC 6 knockdown cells. Type of assay: cell-based, human. From the text:
shRNA lentiviral particles targeting different regions of HDAC6 mRNA, HDAC6 KD1 (HDAC6 knockdown 1) at 1.7×10^7 TU/ml and HDAC6 KD2 (HDAC6 knockdown 2) at 1.9×10^7 TU/ml, and a non-targeting ‘scramble’ shRNA control particles (#SHC002V) at 1.1×10^7 TU/ml, were purchased from Sigma-Aldrich and transfected according to the manufacturer's instructions using polybrene (Millipore). The 21-nucleotide sequence corresponding to HDAC6 mRNA for HDAC6 KD1 is 5′-[…]-3′ and for HDAC6 KD2 is 5′-[…]-3′. For each shRNA, 5×10^5 cells were infected at an MOT of 2.

Assay [5] relates to LNCaP cells. As to the kind of experiment: Cell cycle analysis by flow cytometry, LNCaP. The class given is cell-based, human. The conditions noted are these: 24 h, propidium iodide. As to the method:
Cells were harvested at 24 h culture with the indicated drugs, washed with PBS and fixed in methanol. Cells were then resuspended in a buffer containing […] propidium iodide and […] RNase A. Samples were analysed by flow cytometry using a Becton Dickinson FACSCalibur flow cytometer. Data were collected for 10,000 events and analyzed using FlowJo software.
On the technique in general: In flow cytometry, cells or beads pass a laser one at a time.

For assay [6], the system named is LNCaP cells. The experiment in a line: Quantitative real-time PCR in LNCaP cells. The conditions noted are these: for expression of Mcm4, Mcm6, Cdt1 and Psf2: quantitative real-time PCR. Type of assay: cell-based, human. As to the method:
[…] of total RNA was reverse-transcribed using the Thermoscript RT-PCR system (Invitrogen) at 52° C. for 1 h. 20 ng of resultant cDNA was used in a Q-PCR reaction using an 7500 Real-Time PCR System (Applied Biosystems) using predesigned primers for DDIT3, DDIT4, Mcm4, Mcm6, Cdt1, Psf2 and GAPDH (Applied Biosystems). Amplification was carried for 40 cycles (95° C. for 15 sec, 60° C. for 1 min). To calculate the efficiency of the PCR reaction, and to assess the sensitivity of each assay, we performed a 6 point standard curve (5, 1.7, 0.56, 0.19, 0.062, and 0.021 ng). Triplicate CT values were averaged, amounts of target were interpolated from the standard curves and normalized to GAPDH (assay Hs99999909_m1).
(In general: In qPCR the cycle at which signal appears reflects the starting amount.)

In assay [7] the test system is LNCaP cells. As to the kind of experiment: Microarray analysis of gene expression in LNCaP cells. Type of assay: cell-based, human. Also on record: Total gene number: dose or concentration left out as unconfirmed. As to the method:
Alterations in gene expression were evaluated by microarray using the Illumina human cDNA array containing cDNA probes representing the whole genome (10000 genes). […] Triplicate samples were prepared for each drug treatment at each time point. Poly(A)+ mRNA was isolated from cells using Trizol reagent according to manufacturer's protocol (Invitrogen). The data was analyzed using the Bioconductor packages (www.bioconductor.com) for the R statistical system. The output from Beadstudio was processed using the LUMI package. The normalization method used was quantile and the signal levels were log (base 2) transformed. To determine genes that are differentially expressed between the various sample types, the LIMMA package was used.

A further assay relates to γH2AX. As to the kind of experiment: Accumulation of γH2AX in LNCaP cells (Western blot, ImageJ quantitation). The class given is cell-based, human. The following applies: 24 h.
In a further assay the test system is HFS cells. As to the kind of experiment: Cell viability, normal human foreskin cells (HFS). The following applies: 8 μM tubacin, 5 μM SAHA, alone or together. The class given is cell-based.
A further assay deals with WI38 cells. As to the kind of experiment: Cell viability, normal human embryonic fibroblast WI38. Type of assay: cell-based. The following applies: 8 μM tubacin, 5 μM SAHA, alone or together.

Chain of recombinant human HDAC1 (Q13547 whole entry): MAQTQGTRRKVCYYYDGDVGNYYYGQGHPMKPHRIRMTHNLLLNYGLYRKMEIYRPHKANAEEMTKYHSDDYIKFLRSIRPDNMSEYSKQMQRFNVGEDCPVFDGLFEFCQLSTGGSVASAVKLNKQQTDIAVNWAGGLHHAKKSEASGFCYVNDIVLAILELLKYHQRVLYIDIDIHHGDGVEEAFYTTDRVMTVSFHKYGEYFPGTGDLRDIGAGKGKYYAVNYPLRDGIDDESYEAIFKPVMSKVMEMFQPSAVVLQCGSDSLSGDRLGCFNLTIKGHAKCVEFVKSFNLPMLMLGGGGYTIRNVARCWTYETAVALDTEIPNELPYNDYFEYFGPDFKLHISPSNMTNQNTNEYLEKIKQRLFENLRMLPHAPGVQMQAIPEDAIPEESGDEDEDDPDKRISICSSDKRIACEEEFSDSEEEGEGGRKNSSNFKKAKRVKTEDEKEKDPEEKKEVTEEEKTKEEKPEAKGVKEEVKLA
Procedure for HFS cells: as §1, §2
Procedure for MCF-7 cells: as §1, §2
Procedure for WI38 cells: as §1
Procedure for recombinant human HDAC1: Inhibition of HDAC 1 and HDAC 6 were analyzed with a fluorogenic substrate according to manufacture's protocol (HDAC assay reagents were purchased from BPS Biosciences, San Diego, Calif.). 50 μl reaction mixture, which contains 1×HDAC assay buffer, 5 units of recombinant human HDAC1 or HDAC 6, 10 μM substrate 3 and 1 μl inhibitor in DMSO, was incubated at 37° C. for 1 hour. […] The fluorescence intensity was measured at excitation of 360 nm and emission of 460 nm with SpectraMax Gemini XS microplate reader (Molecular Devices, Sunny Calif.).
Procedure for γH2AX: 1×10^6 cells were seeded in a 10 cm diameter cell culture dish and cultured overnight prior to addition of the indicated drugs, washed with PBS, harvested by trypsinisation and lysed in RIPA buffer (50 mM Tris-HCL pH8.0, 120 mM NaCl, 0.5 mM EDTA, 0.5% NP-40). […] Quantitation of western blots was performed using ImageJ.

Regarding `CC(C)(C)OC(=O)Nc1ccc(-c2cc(C(=O)NCCCCCCC(=O)NO)no2)cc1` [BAHA], in the assay on LNCaP cells [1] (LNCaP, 1 μM BAHA), the cell death result is on record as “no cell death” and the cell growth result was “moderate inhibition”. In addition, in assay [2], the “accumulation of acetylated histone H3” value is “little or no accumulation” and the “accumulation of acetylated α-tubulin” value is reported as “caused the accumulation”. Besides, the IC50 on recombinant human HDAC1 was 53.7 nM.
Take `CC(/C=C/C(=O)NO)=C\[C@@H](C)C(=O)c1ccc(N(C)C)cc1` [Trichostatin A]: in [3], the “accumulation of acetylated histone H3” value is “caused the accumulation” and the “accumulation of acetylated tubulin” value is listed as “caused the accumulation”.
On to `COc1cccc2c1C(=O)c1c(O)c3c(c(O)c1C2=O)C[C@@](O)(C(=O)CO)C[C@@H]3O[C@H]1C[C@H](N)[C@H](O)[C@H](C)O1` [doxorubicin], for which the cell death amounted to 25% in the assay with MCF-7 cells; 40% in the assay on LNCaP cells [1] (LNCaP, 5 nM doxorubicin, alone or plus 8 μM tubacin, 48 hrs); 80% with LNCaP cells [1] (LNCaP, […] doxorubicin, alone or plus 8 μM tubacin, 48 hrs); 45% in the assay with LNCaP cells [1] (wild type LNCaP, 10 nM doxorubicin, 72 hrs); 75% in the assay with LNCaP cells [1] (wild type LNCaP, 100 nM doxorubicin, 72 hrs); 85% in the assay on LNCaP cells [1] (wild type LNCaP, 500 nM doxorubicin, 72 hrs). Also, the cell death in assay [4] (LNCaP HDAC 6 knock down, 10 nM doxorubicin, 72 hrs) came to 85%; in [4] (LNCaP HDAC 6 knock down, 100 nM doxorubicin, 72 hrs), 90%; in assay [4] (LNCaP HDAC 6 knock down, 500 nM doxorubicin, 72 hrs) it was 95%. The “rate of cell growth” value in the assay with MCF-7 cells is on record as “markedly decreased”; in the assay on LNCaP cells [1] (LNCaP, 10 nM doxorubicin, alone or plus 8 μM tubacin), “decreased”.
As for `COc1cc([C@@H]2c3cc4c(cc3[C@@H](O[C@@H]3O[C@@H]5CO[C@@H](C)O[C@H]5[C@H](O)[C@H]3O)[C@H]3COC(=O)[C@H]23)OCO4)cc(OC)c1O` [etoposide], the cell death in the assay with MCF-7 cells was 30%; in the assay with LNCaP cells [1] (LNCaP, 50 μM etoposide, alone or plus 8 μM tubacin, 72 hrs), 50%; in the assay on LNCaP cells [1] (LNCaP, 100 μM etoposide, alone or plus 8 μM tubacin, 72 hrs) it was 80%; in the assay on LNCaP cells [1] (wild type LNCaP, 10 μM etoposide, 48 hrs), 10%; in the assay on LNCaP cells [1] (wild type LNCaP, 50 μM etoposide, 48 hrs) it was 30%; in the assay on LNCaP cells [1] (wild type LNCaP, 100 μM etoposide, 48 hrs) it was 40%. Also, the cell death in assay [4] (LNCaP HDAC 6 knockdown, 10 μM etoposide, 48 hrs) was found to be 20%; in assay [4] (LNCaP HDAC 6 knockdown, 50 μM etoposide, 48 hrs), 35%; in assay [4] (LNCaP HDAC 6 knockdown, 100 μM etoposide, 48 hrs) it was 55%. Also, the “rate of cell growth” value with MCF-7 cells was “markedly decreased”. Besides, the cell cycle distribution result in the assay on LNCaP cells [5] is listed as “small increase in cells in G1”. In addition, the “expression of Mcm4, Mcm6, Cdt1 and Psf2” value with LNCaP cells [6] is “downregulated”.
Regarding `O=C(CCCCCCC(=O)Nc1ccc([C@H]2O[C@@H](CSc3nc(-c4ccccc4)c(-c4ccccc4)o3)C[C@@H](c3ccc(CO)cc3)O2)cc1)NO` [tubacin], the “DDIT3 gene expression change” value was “* (No detectable change of ≧2-fold)” with LNCaP cells [7] (2 h); 7 fold and 7.04 fold in the assay with LNCaP cells [7] (24 h). Moreover, the Total gene number with LNCaP cells [7] (2 h, genes changed ≧2-fold) is 1; in the assay on LNCaP cells [7] (8 h, ≧2-fold) it was 7; with LNCaP cells [7] (24 h, ≧2-fold), 225. For the same molecule, the Downregulated genes in the assay with LNCaP cells [7] (2 h, ≧2-fold) stood at 0; in the assay with LNCaP cells [7] (8 h, ≧2-fold), 1; in the assay on LNCaP cells [7] (24 h, ≧2-fold) it was 72. In addition, the Upregulated genes is on record as 1 in the assay with LNCaP cells [7] (2 h, ≧2-fold); 6 in the assay on LNCaP cells [7] (8 h, ≧2-fold); 153 in the assay on LNCaP cells [7] (24 h, ≧2-fold). Further, the results for the “DDIT4 gene expression change” value in the assay with LNCaP cells [7] (8 h) and with LNCaP cells [7] (24 h) were 5.54 fold and 6.8 fold, respectively. For the same molecule, the cell death result with MCF-7 cells was “did not induce MCF-7 cell death”; with LNCaP cells [1] (LNCaP, tubacin alone (8 μM), up to 72 hrs) it was “did not cause cell death; also recorded: did not induce LNCaP cell death”; in the assay on HFS cells, “did not cause cell death”; in the assay on WI38 cells, “did not cause cell death”. In addition, in the assay with MCF-7 cells, the “rate of cell growth” value was “somewhat decreased”. Moreover, the “accumulation of γH2AX” value in the assay on γH2AX is “increased”. Further, in [3], the “accumulation of acetylated histone H3” value was “but not acetylated histone H3”. Also, the “accumulation of acetylated tubulin” value in assay [3] is recorded as “caused an accumulation”. Also, the cell cycle distribution entry in the assay on LNCaP cells [5] is reported as “increase in G1 arrest”. Also, the IC50 at recombinant human HDAC1 amounted to 82 nM. For the same molecule, the “DDIT4 expression by quantitative real-time PCR” value in the assay on LNCaP cells [6] is “upregulation”. Further, the “expression of Mcm4, Mcm6, Cdt1 and Psf2” value with LNCaP cells [6] was “downregulated”.
